Experimental data: US9512139B2, “Conformationally constrained, fully synthetic macrocyclic compounds” (POLYPHOR AG, priority 2009, dated 2016)
pIC50: −log10 of the molar value.

How the values were obtained:
[1] = Metabolic stability assay, CD-1 mouse microsomes; format: in vitro ADME; conditions: CD-1, mouse, microsomes
[2] = Metabolic stability assay, human microsomes; format: in vitro ADME; conditions: human, microsomes
[3] = target: T1, Prostaglandin F (FP) Receptor (Homo sapiens, UniProt P43088); assay: Ca2+ assay (FLIPR) for the GPCR prostaglandin F (FP) receptor, agonist and antagonist mode; format: cell-based
T1 construct: host or cells: Ca2+ optimized hematopoietic cell lines (rat)
T1 sequence (P43088 whole entry): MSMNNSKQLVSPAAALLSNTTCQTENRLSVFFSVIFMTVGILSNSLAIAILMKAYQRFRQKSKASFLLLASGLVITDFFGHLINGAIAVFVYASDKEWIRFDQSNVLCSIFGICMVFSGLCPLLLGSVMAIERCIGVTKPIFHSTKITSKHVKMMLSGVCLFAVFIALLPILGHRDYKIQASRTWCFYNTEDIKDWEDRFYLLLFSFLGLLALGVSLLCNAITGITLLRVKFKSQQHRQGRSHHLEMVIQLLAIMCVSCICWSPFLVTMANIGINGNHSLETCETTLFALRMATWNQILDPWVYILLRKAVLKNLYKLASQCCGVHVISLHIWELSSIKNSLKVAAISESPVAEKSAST
Procedure: Biological and Pharmacological Methods 1. Ca^2+ Assays for the GPCRs Motilin Receptor, Prostaglandin F (FP) Receptor, 5-hydroxytryptamine 2B (5-HT2B) Receptor, and Purinoreceptor P2Y1
Assays were performed using on a FLIPR^TETRA fluorometric imaging plate reader (Molecular Devices) with ScreenWorks Version 2 (Molecular Devices) as device operating and data analysis software.
Dose dependent agonist and antagonist activities were determined. Percentage activation and percentage inhibition values were determined.
Percentage activation was determined upon initial addition of the sample compounds followed by 10 minutes incubation at 25° C. Following compound incubation, reference agonists were added at EC80 to determine percentage inhibition.
Reference agonists were purchased from reputable commercial vendors and prepared according to each ligand's specifications. All handling of ligands were done to ensure proper control throughout the experiments.
Example compounds were weighed on a Microbalance (Mettler MX5) and dissolved in 100% DMSO to a final concentration of 2.5 mM and subsequently diluted into the assay buffer.
The Assay buffer was a supplemented HBSS (Hank's Balanced Salt Solution). HBSS was supplemented with 20 mM HEPES (4-(2-hydroxyethyl)-piperazin-1-ethansulfonic acid) and 2.5 mM Probenecid (Sigma P8761).
GPCR assays were performed using Ca^2+ optimized hematopoietic cell lines (rat) with cultures never exceeding 90% confluency. Cells were harvested and seeded (from cultures at less than 90% confluency) at 50000 cells/well for a 96-well plate (12500 cells/well for 384). After seeding, the assay plates were incubated for forty-five (45) minutes at room temperature. After room temperature incubation, the assay plates were incubated at 37° C. 5% CO2 for 24 hours prior to assaying.
All GPCR assays were performed using Fluo-8 Ca^2+ dye. Ca^2+ dye was prepared at 1× dye concentration in GPCR assay buffer. After 24 hours of incubation, cells were washed with GPCR assay buffer, and then Ca^2+-dye (100 μL/well) was added.
The plates were incubated for 90 minutes at 30° C. 5% CO2 prior to FLIPR assay.
Compound plates were prepared to add 50 μL/well during the agonist assay mode. During the FLIPR assay, 50 μL/well from the compound plate was diluted 3-fold into the existing 100 μL/well from the dye loading step. Therefore all compounds were prepared as 3× the final concentration desired in the assay.
After completion of the first single addition assay run, assay plate was removed from the FLIPR Tetra and placed at 25° C. for seven (7) minutes before antagonist assay.
Using the EC80 values determined during the agonist assay, all pre-incubated sample compound and reference antagonist (if applicable) wells were stimulated at the EC80 of the reference agonist. As reference ligands for the first three assays their obvious natural ligands motilin, prostaglandin F2α, and serotonin (5-HT, 5-Hydroxytryptamine) were used; and for the P2Y1 assay 2MeSATP (2-methyl-thio-adeno-sine 5′-triphosphate, i.e. (2R,3S,4R)-5-(6-amino-2-methylsulfanyl-purin-9-yl)-3,4-dihydroxy-tetrahydrofuran-2-yl]methyl (hydroxy-phosphonooxy-phosphoryl)hydrogen phosphate) was applied.
After the addition of the reference agonist fluorescence was monitored for 180 sec using FLIPR Tetra.
Data Analysis and Results:
From the FLIPR data, with negative control correction enabled, the maximum statistic for each well was exported and percentage activation relative to Emax control was calculated.

pIC50 [3]	inhibition at 10 µM [3] [%]	Structure (SMILES)	also measured
5.77	78	CCCCCCCCCC(=O)N[C@H]1CN(C)C(=O)c2cccc(c2)OC[C@@H]2C[C@H](NC(=O)Cc3c[nH]c4ccccc34)CN2C(=O)CN(C)C1=O [Ex. 213, N-[(4S,6S,13S)-6-{[2-(1H-indol-3-yl)acetyl]amino}-11,15-dimethyl-9,12,16-trioxo-2-oxa-8,11,15-triazatricyclo[15.3.1.0^4,8]henicosa-1(21),17,19-trien-13-yl]decanamide]	half-life at 10 µM ([1]; both sexes): 17 min; Metabolic Stability 60 min mouse [% remain.] ([1]; both, 1 h, 10 µM): 4 % remain.; half-life at 10 µM ([2]; both sexes): 16 min; Metabolic Stability 60 min hum [% remain.] ([2]; both, 1 h, 10 µM): 0 % remain.
5.57	85	CN(C)c1cccc(NC(=O)N[C@H]2C[C@H]3COc4cccc(c4)C(=O)NCCC[C@H](NC(=O)Cc4ccc5ccccc5c4)C(=O)N3C2)c1 [Ex. 386, N-[(4S,6S,10S)-6-({[3-(dimethylamino)anilino]carbonyl}amino)-9,15-dioxo-2-oxa-8,14-diazatricyclo[14.3.1.0^4,8]icosa-1(20),16,18-trien-10-yl]-2-(2-naphthyl)acetamide]	
5.68	54	CCCCCCCCCC(=O)N[C@H]1CCCN(C)C(=O)c2cccc(c2)OC[C@@H]2C[C@H](NC(=O)CCc3ccccc3)CN2C1=O [Ex. 509, N-[(4S,6S,10S)-14-methyl-9,15-dioxo-6-[(3-phenylpropanoyl)amino]-2-oxa-8,14-diazatricyclo[14.3.1.0^4,8]icosa-1(20),16,18-trien-10-yl]decanamide]	
5.29	32	CCCCCCCCCC(=O)N[C@H]1CCCN(C)C(=O)c2cccc(c2)OC[C@@H]2C[C@H](NC(=O)Cc3cccc(Oc4ccccc4)c3)CN2C1=O [Ex. 515, N-[(4S,6S,10S)-14-methyl-9,15-dioxo-6-{[2-(3-phenoxyphenyl)acetyl]amino}-2-oxa-8,14-diazatricyclo[14.3.1.0^4,8]icosa-1(20),16,18-trien-10-yl]decanamide]	
6.46	95	CN1CCC[C@H](NC(=O)Cc2ccc(-c3ccccc3)cc2)C(=O)N2C[C@@H](NC(=O)Cc3ccc4ccccc4c3)C[C@H]2COc2cccc(c2)C1=O [Ex. 522, 2-[1,1′-biphenyl]-4-yl-N-[(4S,6S,10S)-14-methyl-6-{[2-(2-naphthyl)acetyl]amino}-9,15-dioxo-2-oxa-8,14-diazatricyclo[14.3.1.0^4,8]icosa-1(20),16,18-trien-10-yl]acetamide]	
6.74	99	CN1CCC[C@H](NC(=O)Cc2ccc(-c3ccccc3)cc2)C(=O)N2C[C@@H](NC(=O)Nc3cccc(N(C)C)c3)C[C@H]2COc2cccc(c2)C1=O [Ex. 526, 2-[1,1′-biphenyl]-4-yl-N-[(4S,6S,10S)-6-({[3-(dimethylamino)anilino]carbonyl}amino)-14-methyl-9,15-dioxo-2-oxa-8,14-diazatricyclo[14.3.1.0^4,8]icosa-1(20),16,18-trien-10-yl]acetamide]	
	81	CCCCCC(=O)N[C@H]1C[C@H]2COc3cccc(c3)C(=O)N(C)CCC[C@H](NC(=O)Cc3cccc4ccccc34)C(=O)N2C1 [Ex. 544, N-[(4S,6S,10S)-14-methyl-10-{[2-(1-naphthyl)acetyl]amino}-9,15-dioxo-2-oxa-8,14-diazatricyclo[14.3.1.0^4,8]icosa-1(20),16,18-trien-6-yl]hexanamide]	
	72	CN1CCC[C@H](NC(=O)Cc2ccc(-c3ccccc3)cc2)C(=O)N2C[C@@H](NC(=O)Cc3ccc(-c4ccccc4)cc3)C[C@H]2COc2cccc(c2)C1=O [Ex. 551, 2-[1,1′-biphenyl]-4-yl-N-[(4S,6S,10S)-10-[(2-[1,1′-biphenyl]-4-ylacetyl)amino]-14-methyl-9,15-dioxo-2-oxa-8,14-diazatricyclo[14.3.1.0^4,8]icosa-1(20),16,18-trien-6-yl]acetamide]	
6.31	80	CCCCCC/C=C/CC(=O)N[C@H]1CCCN(C)C(=O)c2cccc(c2)OC[C@@H]2C[C@H](NC(=O)Cc3ccc4ccccc4c3)CN2C1=O [Ex. 518, (E)-N-[(4S,6S,10S)-14-methyl-6-{[2-(2-naphthyl)acetyl]amino}-9,15-dioxo-2-oxa-8,14-diazatricyclo[14.3.1.0^4,8]icosa-1(20),16,18-trien-10-yl]-3-decenamide]	
5.77	85	CN1CCC[C@H](NC(=O)CCCCCc2ccccc2)C(=O)N2C[C@@H](NC(=O)CCCCCOCc3ccccc3)C[C@H]2COc2cccc(c2)C1=O [Ex. 524, 6-(benzyloxy)-N-[(4S,6S,10S)-14-methyl-9,15-dioxo-10-[(6-phenylhexanoyl)amino]-2-oxa-8,14-diazatricyclo[14.3.1.0^4,8]icosa-1(20),16,18-trien-6-yl]hexanamide]	
5.52		CCCCCCCCCC(=O)N[C@H]1CCCN(C)C(=O)c2cccc(c2)OC[C@@H]2C[C@H](NC(=O)Cc3cccc4ccccc34)CN2C1=O [Ex. 519, N-[(4S,6S,10S)-14-methyl-6-{[2-(1-naphthyl)acetyl]amino}-9,15-dioxo-2-oxa-8,14-diazatricyclo[14.3.1.0^4,8]icosa-1(20),16,18-trien-10-yl]decanamide]	
	71	CN1CCC[C@H](NC(=O)CC(C)(C)C)C(=O)N2C[C@@H](NC(=O)Nc3cccc(N(C)C)c3)C[C@H]2COc2cccc(c2)C1=O [Ex. 552, N-[(4S,6S,10S)-6-({[3-(dimethylamino)anilino]carbonyl}amino)-14-methyl-9,15-dioxo-2-oxa-8,14-diazatricyclo[14.3.1.0^4,8]icosa-1(20),16,18-trien-10-yl]-3,3-dimethylbutanamide]	
6.60	93	CCCCCCCCCC(=O)N[C@H]1CCCNC(=O)c2cccc(c2)OC[C@@H]2C[C@H](NC(=O)Cc3ccc4ccccc4c3)CN2C1=O [Ex. 391, N-[(4S,6S,10S)-6-{[2-(2-naphthyl)acetyl]amino}-9,15-dioxo-2-oxa-8,14-diazatricyclo[14.3.1.0^4,8]icosa-1(20),16,18-trien-10-yl]decanamide]	
	73	CCCCCCCCCC(=O)N[C@H]1CCCN(C)C(=O)c2cccc(c2)OC[C@@H]2C[C@H](NC(=O)CC(c3ccccc3)c3ccccc3)CN2C1=O [Ex. 550, N-[(4S,6S,10S)-6-[(3,3-diphenylpropanoyl)amino]-14-methyl-9,15-dioxo-2-oxa-8,14-diazatricyclo[14.3.1.0^4,8]icosa-1(20),16,18-trien-10-yl]decanamide]	
6.49	99	O=C(Cc1ccc2ccccc2c1)N[C@H]1C[C@H]2COc3cccc(c3)C(=O)NCCC[C@H](NC(=O)OCc3ccccc3)C(=O)N2C1 [Ex. 388, benzyl N-[(4S,6S,10S)-6-{[2-(2-naphthyl)acetyl]amino}-9,15-dioxo-2-oxa-8,14-diazatricyclo[14.3.1.0^4,8]icosa-1(20),16,18-trien-10-yl]carbamate]	
6.00	81	CN1CCC[C@H](NC(=O)CCCCCOCc2ccccc2)C(=O)N2C[C@@H](NC(=O)Cc3ccc4ccccc4c3)C[C@H]2COc2cccc(c2)C1=O [Ex. 521, 6-(benzyloxy)-N-[(4S,6S,10S)-14-methyl-6-{[2-(2-naphthyl)acetyl]amino}-9,15-dioxo-2-oxa-8,14-diazatricyclo[14.3.1.0^4,8]icosa-1(20),16,18-trien-10-yl]hexanamide]	
	37	CN1CCC[C@H](NC(=O)Cc2ccc(-c3ccccc3)cc2)C(=O)N2C[C@@H](NC(=O)C(c3ccccc3)c3ccccc3)C[C@H]2COc2cccc(c2)C1=O [Ex. 546, N-[(4S,6S,10S)-10-[(2-[1,1′-biphenyl]-4-ylacetyl)amino]-14-methyl-9,15-dioxo-2-oxa-8,14-diazatricyclo[14.3.1.0^4,8]icosa-1(20),16,18-trien-6-yl]-2,2-diphenylacetamide]	
